The target of this test is T1, aurora-A (human) (Homo sapiens, UniProt O14965).
T1 construct: purchased Upstate, Dundee, UK
T1 sequence (O14965 1-403): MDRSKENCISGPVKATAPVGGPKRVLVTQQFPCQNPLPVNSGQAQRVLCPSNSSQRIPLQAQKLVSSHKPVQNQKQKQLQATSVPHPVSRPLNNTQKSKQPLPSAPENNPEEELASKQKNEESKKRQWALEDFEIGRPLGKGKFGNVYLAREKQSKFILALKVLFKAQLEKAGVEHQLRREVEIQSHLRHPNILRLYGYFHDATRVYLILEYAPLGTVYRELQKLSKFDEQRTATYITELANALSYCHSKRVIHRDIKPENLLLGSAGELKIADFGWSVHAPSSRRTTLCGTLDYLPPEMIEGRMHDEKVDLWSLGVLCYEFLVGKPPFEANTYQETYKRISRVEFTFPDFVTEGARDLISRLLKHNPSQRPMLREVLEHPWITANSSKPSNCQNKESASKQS
Nature of the test: Aurora-A (human) kinase assay. The note with it: read-out: Activity (Aurora A activity, IC50 grading). Type of test: biochemical. A digest of the protocol: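 Radiometric assay measuring [γ-32P] transfer from 100 μM ATP to 500 μM Kemptide by 2-5 ng active human aurora-A, pH 7.5 buffer, 30 min at 30° C. Incorporated label captured on P81 filters and counted by scintillation; IC50 from curve fitting.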
As for `CCOC(=O)c1cnn(-c2ccc(Nc3nccc(-c4c(C)c5n(c4C)CCNC5=O)n3)cc2)c1C` [Example I-81, 1-{4-[4-(6,8-Dimethyl-1-oxo-1,2,3,4-tetrahydro-pyrrolo[1,2-a]pyrazin-7-yl)-pyrimidin-2-ylamino]-phenyl}-5-methyl-1H-pyrazole-4-carboxylic acid ethyl ester], the IC50 (as a rule, the concentration that gives 50% inhibition) is under 1 µM.
As for `Cc1c(-c2ccnc(Nc3ccc(-c4ccno4)cc3)n2)c(C)n2c1C(=O)NCC2` [Example I-82, 7-[2-(4-Isoxazol-5-yl-phenylamino)-pyrimidin-4-yl]-6,8-dimethyl-3,4-dihydro-2H-pyrrolo[1,2-a]pyrazin-1-one], the IC50 was under 0.1 µM.
Take `Cc1c(-c2ccnc(Nc3ccc(-c4csc(CC(N)=O)n4)cc3)n2)c(C)n2c1C(=O)NCC2` [Example I-83, 2-(4-{4-[4-(6,8-Dimethyl-1-oxo-1,2,3,4-tetrahydro-pyrrolo[1,2-a]pyrazin-7-yl)-pyrimidin-2-ylamino]-phenyl}-thiazol-2-yl)-acetamide]: the IC50 was under 1 µM.
Consider `Cc1c(-c2ccnc(Nc3ccc(-c4csc(CC#N)n4)cc3)n2)c(C)n2c1C(=O)NCC2` [Example I-84], for which the IC50 is under 1 µM.
On to `COc1ccc(Nc2nccc(-c3c(C)c4n(c3C)CCNC4=O)n2)c(OC)c1` [Example I-85, 7-[2-(2,4-Dimethoxy-phenylamino)-pyrimidin-4-yl]-6,8-dimethyl-3,4-dihydro-2H-pyrrolo[1,2-a]pyrazin-1-one], for which the IC50 was under 10 µM.
For `Cc1c(-c2ccnc(Nc3ccc(F)cc3Cl)n2)c(C)n2c1C(=O)NCC2` [Example I-86, 7-[2-(2-Chloro-4-fluoro-phenylamino)-pyrimidin-4-yl]-6,8-dimethyl-3,4-dihydro-2H-pyrrolo[1,2-a]pyrazin-1-one], the IC50 was under 10 µM.
The same measure for `COc1ccc(Cl)cc1Nc1nccc(-c2c(C)c3n(c2C)CCNC3=O)n1` [Example I-87, 7-[2-(5-Chloro-2-methoxy-phenylamino)-pyrimidin-4-yl]-6,8-dimethyl-3,4-dihydro-2H-pyrrolo[1,2-a]pyrazin-1-one]: under 10 µM; for `Cc1ccc(F)cc1Nc1nccc(-c2c(C)c3n(c2C)CCNC3=O)n1` [Example I-88, 7-[2-(5-Fluoro-2-methyl-phenylamino)-pyrimidin-4-yl]-6,8-dimethyl-3,4-dihydro-2H-pyrrolo[1,2-a]pyrazin-1-one]: under 10 µM.
On to `Cc1ccc(Oc2ccc(Nc3nccc(-c4c(C)c5n(c4C)CCNC5=O)n3)cc2)cc1` [Example I-89, 6,8-Dimethyl-7-[2-(4-p-tolyloxy-phenylamino)-pyrimidin-4-yl]-3,4-dihydro-2H-pyrrolo[1,2-a]pyrazin-1-one], for which the IC50 is under 10 µM.
As for `CCN(CC)CCNS(=O)(=O)c1ccc(Nc2nccc(-c3c(C)c4n(c3C)CCNC4=O)n2)cc1C` [Example I-90, N-(2-Diethylamino-ethyl)-4-[4-(6,8-dimethyl-1-oxo-1,2,3,4-tetrahydro-pyrrolo[1,2-a]pyrazin-7-yl)-pyrimidin-2-ylamino]-2-methyl-benzenesulfonamide], the IC50 was under 10 µM.
Turning to `Cc1cc(Nc2nccc(-c3c(C)c4n(c3C)CCNC4=O)n2)ccc1S(=O)(=O)N(C)CCCN(C)C` [Example I-91, N-(3-Dimethylamino-propyl)-4-[4-(6,8-dimethyl-1-oxo-1,2,3,4-tetrahydro-pyrrolo[1,2-a]pyrazin-7-yl)-pyrimidin-2-ylamino]-2,N-dimethyl-benzenesulfonamide], the IC50 was under 10 µM.
Then `CCOC(=O)c1c(C)nn(-c2ccc(Nc3nccc(-c4c(C)c5n(c4C)CCNC5=O)n3)cc2)c1C` [Example I-92, 1-{4-[4-(6,8-Dimethyl-1-oxo-1,2,3,4-tetrahydro-pyrrolo[1,2-a]pyrazin-7-yl)-pyrimidin-2-ylamino]-phenyl}-3,5-dimethyl-1H-pyrazole-4-carboxylic acid ethyl ester], with under 10 µM.

Source of the values: patent US8404692B2, “Pyrimidin-4-yl-3, 4-dihydro-2H-pyrrolo [1,2A] pyrazin-1-one compounds” (Cyclacel Limited, priority 2005, dated 2013).
